Measured values as given in paper PMC6547681 (Nature Communications, 2019).

What was measured:
[1] = molecular target: BCL-2 G101V/E152A double mutant (Homo sapiens, UniProt P10415, E152A/G101V); test: Steady-state competition SPR against immobilised BIMBH3 peptide, BCL-2 G101V/E152A double mutant; format: binding
Description: SPR experiments were performed as previously described. […] The lowest concentrations used in direct binding experiments were 1 nM for BIAcore 4000 and 0.1 nM for BIAcore S200 instruments, concentrations below these were below the sensitivity thresholds for the instruments. […] Direct binding experiments were fitted to a 1:1 binding site kinetic model, fitting on and off rates, in BIAevaluation software. For competition experiments steady-state responses were determined in BIAevaluation software according to the software defaults in affinity evaluation mode averaging responses for 5 sec. […] All affinity measurements were performed in at least two independent experiments using independent protein preparations.

[2] = system: KMS-12-PE cells expressing BCL-2 G101V; test: CellTiter-Glo cell viability, KMS-12-PE cells overexpressing BCL-2 G101V; settings: read-out: S55746 LC50, KMS-12-PE overexpressing BCL-2 G101V, 24 h, mean ± SD, n = 3

Sequence of BCL-2 G101V/E152A double mutant (P10415 with tags, fused parts or gaps G101V/E152A): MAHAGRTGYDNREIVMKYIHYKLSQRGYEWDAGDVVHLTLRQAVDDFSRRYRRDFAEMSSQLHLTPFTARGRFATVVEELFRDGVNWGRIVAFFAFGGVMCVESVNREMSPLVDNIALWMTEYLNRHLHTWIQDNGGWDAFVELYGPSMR

With `O=C(c1cc(-c2cc3c(cc2C(=O)N2Cc4ccccc4C[C@H]2CN2CCOCC2)OCO3)n2c1CCCC2)N(c1ccccc1)c1ccc(O)cc1` [S55746] the “Raw data values in Figure 3h (SPR response)” value (“Raw data values in Figure 3h” below) ([1]; S55746 concentration 20, BCL-2 concentration 10 nM, independent experiment 1) was 30.4614, the “Raw data values in Figure 3h” value ([1]; S55746 concentration 20, BCL-2 concentration 10 nM, independent experiment 2) was 6.021 and the “Raw data values in Figure 3h” value ([1]; S55746 concentration 20, BCL-2 concentration 20 nM, independent experiment 1) was 65.5037. For the same molecule, the “Raw data values in Figure 3h” value ([1]; S55746 concentration 20, BCL-2 concentration 20 nM, independent experiment 2) was 18.8646, the “Raw data values in Figure 3h” value ([1]; S55746 concentration 20, BCL-2 concentration 30 nM, independent experiment 1) was 76.9824 and the “Raw data values in Figure 3h” value ([1]; S55746 concentration 20, BCL-2 concentration 30 nM, independent experiment 2) was 27.9038. For the same molecule, the “Raw data values in Figure 3h” value ([1]; S55746 concentration 20, BCL-2 concentration 40 nM, independent experiment 1) was 81.6304, the “Raw data values in Figure 3h” value ([1]; S55746 concentration 20, BCL-2 concentration 40 nM, independent experiment 2) was 34.3045 and the “Raw data values in Figure 3h” value ([1]; S55746 concentration 20, BCL-2 concentration 50 nM, independent experiment 1) was 84.581. The “Raw data values in Figure 3h” value ([1]; S55746 concentration 20, BCL-2 concentration 50 nM, independent experiment 2) was 38.4913, the “Raw data values in Figure 3h” value ([1]; S55746 concentration 20, BCL-2 concentration 60 nM, independent experiment 1) was 86.8988 and the “Raw data values in Figure 3h” value ([1]; S55746 concentration 20, BCL-2 concentration 60 nM, independent experiment 2) was 42.4602. The “Raw data values in Figure 3h” value ([1]; S55746 concentration 20, BCL-2 concentration 70 nM, independent experiment 1) was 87.9145, the “Raw data values in Figure 3h” value ([1]; S55746 concentration 20, BCL-2 concentration 70 nM, independent experiment 2) was 45.435 and the “Raw data values in Figure 3h” value ([1]; S55746 concentration 20, BCL-2 concentration 80 nM, independent experiment 1) was 88.9424. For the same molecule, the “Raw data values in Figure 3h” value ([1]; S55746 concentration 20, BCL-2 concentration 80 nM, independent experiment 2) was 47.8619, the “Raw data values in Figure 3h” value ([1]; S55746 concentration 20, BCL-2 concentration 100 nM, independent experiment 1) was 90.7371 and the “Raw data values in Figure 3h” value ([1]; S55746 concentration 20, BCL-2 concentration 100 nM, independent experiment 2) was 52.9424. The “Raw data values in Figure 3h” value ([1]; S55746 concentration 20, BCL-2 concentration 150 nM, independent experiment 1) was 92.2147, the “Raw data values in Figure 3h” value ([1]; S55746 concentration 20, BCL-2 concentration 150 nM, independent experiment 2) was 60.437 and the “Raw data values in Figure 3h” value ([1]; S55746 concentration 20, BCL-2 concentration 200 nM, independent experiment 1) was 94.1481. For the same molecule, the “Raw data values in Figure 3h” value ([1]; S55746 concentration 20, BCL-2 concentration 200 nM, independent experiment 2) was 65.8724, the “Raw data values in Figure 3h” value ([1]; S55746 concentration 40, BCL-2 concentration 10 nM, independent experiment 1) was 10.773 and the “Raw data values in Figure 3h” value ([1]; S55746 concentration 40, BCL-2 concentration 10 nM, independent experiment 2) was 1.948. For the same molecule, the “Raw data values in Figure 3h” value ([1]; S55746 concentration 40, BCL-2 concentration 20 nM, independent experiment 1) was 28.9257, the “Raw data values in Figure 3h” value ([1]; S55746 concentration 40, BCL-2 concentration 20 nM, independent experiment 2) was 5.643 and the “Raw data values in Figure 3h” value ([1]; S55746 concentration 40, BCL-2 concentration 30 nM, independent experiment 1) was 52.4298. For the same molecule, the “Raw data values in Figure 3h” value ([1]; S55746 concentration 40, BCL-2 concentration 30 nM, independent experiment 2) was 13.0173, the “Raw data values in Figure 3h” value ([1]; S55746 concentration 40, BCL-2 concentration 40 nM, independent experiment 1) was 71.0654 and the “Raw data values in Figure 3h” value ([1]; S55746 concentration 40, BCL-2 concentration 40 nM, independent experiment 2) was 23.2512. For the same molecule, the “Raw data values in Figure 3h” value ([1]; S55746 concentration 40, BCL-2 concentration 50 nM, independent experiment 1) was 78.1857, the “Raw data values in Figure 3h” value ([1]; S55746 concentration 40, BCL-2 concentration 50 nM, independent experiment 2) was 30.4785 and the “Raw data values in Figure 3h” value ([1]; S55746 concentration 40, BCL-2 concentration 60 nM, independent experiment 1) was 82.5478. The “Raw data values in Figure 3h” value ([1]; S55746 concentration 40, BCL-2 concentration 60 nM, independent experiment 2) was 36.3344, the “Raw data values in Figure 3h” value ([1]; S55746 concentration 40, BCL-2 concentration 70 nM, independent experiment 1) was 84.8279 and the “Raw data values in Figure 3h” value ([1]; S55746 concentration 40, BCL-2 concentration 70 nM, independent experiment 2) was 40.4837. The “Raw data values in Figure 3h” value ([1]; S55746 concentration 40, BCL-2 concentration 80 nM, independent experiment 1) was 86.613, the “Raw data values in Figure 3h” value ([1]; S55746 concentration 40, BCL-2 concentration 80 nM, independent experiment 2) was 44.3565 and the “Raw data values in Figure 3h” value ([1]; S55746 concentration 40, BCL-2 concentration 100 nM, independent experiment 1) was 88.6534. The “Raw data values in Figure 3h” value ([1]; S55746 concentration 40, BCL-2 concentration 100 nM, independent experiment 2) was 49.9278, the “Raw data values in Figure 3h” value ([1]; S55746 concentration 40, BCL-2 concentration 150 nM, independent experiment 1) was 91.2516 and the “Raw data values in Figure 3h” value ([1]; S55746 concentration 40, BCL-2 concentration 150 nM, independent experiment 2) was 58.1685. The “Raw data values in Figure 3h” value ([1]; S55746 concentration 40, BCL-2 concentration 200 nM, independent experiment 1) was 92.8828, the “Raw data values in Figure 3h” value ([1]; S55746 concentration 40, BCL-2 concentration 200 nM, independent experiment 2) was 64.0843 and the “Raw data values in Figure 3h” value ([1]; S55746 concentration 60, BCL-2 concentration 10 nM, independent experiment 1) was 8.7572. For the same molecule, the “Raw data values in Figure 3h” value ([1]; S55746 concentration 60, BCL-2 concentration 10 nM, independent experiment 2) was 1.402, the “Raw data values in Figure 3h” value ([1]; S55746 concentration 60, BCL-2 concentration 20 nM, independent experiment 1) was 17.8604 and the “Raw data values in Figure 3h” value ([1]; S55746 concentration 60, BCL-2 concentration 20 nM, independent experiment 2) was 2.802. The “Raw data values in Figure 3h” value ([1]; S55746 concentration 60, BCL-2 concentration 30 nM, independent experiment 1) was 29.7852, the “Raw data values in Figure 3h” value ([1]; S55746 concentration 60, BCL-2 concentration 30 nM, independent experiment 2) was 5.592 and the “Raw data values in Figure 3h” value ([1]; S55746 concentration 60, BCL-2 concentration 40 nM, independent experiment 1) was 46.113. For the same molecule, the “Raw data values in Figure 3h” value ([1]; S55746 concentration 60, BCL-2 concentration 40 nM, independent experiment 2) was 9.958, the “Raw data values in Figure 3h” value ([1]; S55746 concentration 60, BCL-2 concentration 50 nM, independent experiment 1) was 65.5161 and the “Raw data values in Figure 3h” value ([1]; S55746 concentration 60, BCL-2 concentration 50 nM, independent experiment 2) was 18.5156. For the same molecule, the “Raw data values in Figure 3h” value ([1]; S55746 concentration 60, BCL-2 concentration 60 nM, independent experiment 1) was 78.402, the “Raw data values in Figure 3h” value ([1]; S55746 concentration 60, BCL-2 concentration 60 nM, independent experiment 2) was 29.1548 and the “Raw data values in Figure 3h” value ([1]; S55746 concentration 60, BCL-2 concentration 70 nM, independent experiment 1) was 82.48. For the same molecule, the “Raw data values in Figure 3h” value ([1]; S55746 concentration 60, BCL-2 concentration 70 nM, independent experiment 2) was 34.7085, the “Raw data values in Figure 3h” value ([1]; S55746 concentration 60, BCL-2 concentration 80 nM, independent experiment 1) was 84.2763 and the “Raw data values in Figure 3h” value ([1]; S55746 concentration 60, BCL-2 concentration 80 nM, independent experiment 2) was 38.0757. For the same molecule, the “Raw data values in Figure 3h” value ([1]; S55746 concentration 60, BCL-2 concentration 100 nM, independent experiment 1) was 87.9314, the “Raw data values in Figure 3h” value ([1]; S55746 concentration 60, BCL-2 concentration 100 nM, independent experiment 2) was 45.7651 and the “Raw data values in Figure 3h” value ([1]; S55746 concentration 60, BCL-2 concentration 150 nM, independent experiment 1) was 91.7815. For the same molecule, the “Raw data values in Figure 3h” value ([1]; S55746 concentration 60, BCL-2 concentration 150 nM, independent experiment 2) was 56.7196, the “Raw data values in Figure 3h” value ([1]; S55746 concentration 60, BCL-2 concentration 200 nM, independent experiment 1) was 93.0262 and the “Raw data values in Figure 3h” value ([1]; S55746 concentration 60, BCL-2 concentration 200 nM, independent experiment 2) was 63.1726. For the same molecule, the CC50 [2] was 2700 ± 430 nM.
